Experimental data: patent US20080287514A1, “Topical compositions containing metronidazole” (priority 2007, published 2008)
One block for each compound: values may come before it.

Experiments:
[1] = Physical stability test (crystal formation or precipitation after 24 hours at room temperature and 7 days at about 4 °C); assay type: physicochemical; settings: for Results from stability test: aqueous solution, 7 days at about 4 °C
Method: The solubility enhancing effect of the combination of niacinamide and hydroxyalkyl urea in increasing the solubility of metronidazole in the aqueous compositions is evaluated by physical stability of the prepared compositions.
Therefore, the compositions in accordance with the present invention are subject to a physical stability test. The protocol for the stability test is as follows: metronidazole and the solubility enhancing agents are combined with water either at room temperature or elevated temperature while stirring until dissolved. The solutions are permitted to cool to room temperature. Customary auxiliaries and additives may be added to the aqueous solutions containing solubilized metronidazole and solubility enhancing agents. The solutions may be gelled by using the suitable gelling agents. The compositions both in gel or solution form are then packaged in clear glass vials and sealed. The vials are kept at room temperature for 24 hours and monitored for crystal formation or precipitation. After 24 hours, the vials are placed in a refrigerator maintained at a temperature of about 4° C. for 7 days. After 7 days, the vials are removed from the refrigerator. Evidence of crystal formation or precipitation in the compositions is examined.
(§1) Each formulation was prepared by combining niacinamide and metronidazole in water (q.s 100%). The mixture was kept at a temperature of about 45° C. while stirring until dissolved. The solutions were permitted to cool to room temperature, packaged and sealed in glass vials. The stability tests described in Example 1 were performed and the test results were recorded.
as §1, with “N-2-hydroxyethyl urea” for “niacinamide”, “(q.s.” for “(q.s”
as §1, with “N-2-hydroxyethyl urea, niacinamide,” for “niacinamide”, “(q.s.” for “(q.s”, “100%). N-2-hydroxyethyl urea is available from a number of commercial sources, for example, Aldrich Chemical Company (Milwaukee, Wis.).” for “100%).”, “kept either at room temperature or” for “kept”

[2] = at 25 °C; cited from earlier work

Results from stability test ([1]; 1.0% metronidazole, 1.0% N-2-hydroxyethyl urea, 3.0% niacinamide): Crystals | Results from stability test ([1]; 1.0% metronidazole, 1.0% N-2-hydroxyethyl urea, 4.0% niacinamide): Clear | Results from stability test ([1]; 1.0% metronidazole, 2% niacinamide): Crystals formed | Results from stability test ([1]; 1.0% metronidazole, 3.0% N-2-hydroxyethyl urea, 3.0% niacinamide): Clear | Results from stability test ([1]; 1.0% metronidazole, 3% niacinamide): Crystals formed | Results from stability test ([1]; 1.0% metronidazole, 4.0% N-2-hydroxyethyl urea, 1.0% niacinamide): Crystals | Results from stability test ([1]; 1.0% metronidazole, 4% niacinamide): Crystals formed | Results from stability test ([1]; 1.0% metronidazole, 5.0% N-2-hydroxyethyl urea, 1.0% niacinamide): Clear | Results from stability test ([1]; 1.0% metronidazole, 5.0% N-2-hydroxyethyl urea, 1.0% niacinamide, listed as metronidazole): stable | Results from stability test ([1]; 1.0% metronidazole, 5.0% N-2-hydroxyethyl urea, 2.0% niacinamide): Clear | Results from stability test ([1]; 1.0% metronidazole, 5% niacinamide): Clear | Results from stability test ([1]; 1.0% metronidazole, 13% N-2-hydroxyethyl urea): Crystals formed | Results from stability test ([1]; 1.0% metronidazole, 14% N-2-hydroxyethyl urea): Crystals formed | Results from stability test ([1]; 1.0% metronidazole, 15% N-2-hydroxyethyl urea): Crystals formed | Results from stability test ([1]; 1.0% metronidazole, 16% N-2-hydroxyethyl urea): Clear | Results from stability test ([1]; 1.2% metronidazole, 10.0% N-2-hydroxyethyl urea, 2.0% niacinamide): Clear
Structure (SMILES): Cc1ncc([N+](=O)[O-])n1CCO [Metronidazole, 1-(2-hydroxyethyl)-2-methyl-5-nitroimidazole]

concentration of N-2-hydroxyethyl urea required to obtain a stable aqueous solution of 1.0% metronidazole ([1]; N-2-hydroxyethyl urea as the only solubility enhancing agent): about 16% | concentration of N-2-hydroxyethyl urea needed to obtain a stable aqueous solution of 1.0% metronidazole ([1]; concentration of niacinamide is 1.0%): ≥ 5.0%
Structure (SMILES): NC(=O)NCCO [N-2-hydroxyethyl urea]

concentration of niacinamide needed to obtain a stable aqueous solution of 1.0% metronidazole ([1]; concentration of N-2-hydroxyethyl urea is 1.0%): about 4.0% | N-2-hydroxyethyl urea functionally equivalent to 1% niacinamide in inducing the solubility enhancing effect ([1]; from Examples 2 and 3, 1.0% metronidazole): about 3.2% | concentration of niacinamide required to obtain a stable aqueous solution of 1.0% metronidazole ([1]; niacinamide as the only solubility enhancing agent): about 5%
Structure (SMILES): NC(=O)c1cccnc1 [niacinamide]
water solubility limit [2]: about 50 % by weight
